According to patent US8268859B2, “Glucocorticoid mimetics, methods of making them, pharmaceutical compositions and uses thereof” (Boehringer Ingelheim International GmbH, priority 2008, dated 2012):
Where two headings read alike, the source gives them in different places.

Tests used:
[1] = target: T1, human glucocorticoid receptor (GR) complex (Homo sapiens, UniProt P04150); experiment: Glucocorticoid receptor fluorescence polarization competitive binding assay;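 note: GR complex expressed in an insect system, wells lacking compound give full signal, excess unlabeled dexamethasone defines the blank, IC50 from logistic curve fit of polarization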
T1 construct: made in house; host or cells: insect expression system (baculovirus lysate)
T1 sequence (P04150 1-777): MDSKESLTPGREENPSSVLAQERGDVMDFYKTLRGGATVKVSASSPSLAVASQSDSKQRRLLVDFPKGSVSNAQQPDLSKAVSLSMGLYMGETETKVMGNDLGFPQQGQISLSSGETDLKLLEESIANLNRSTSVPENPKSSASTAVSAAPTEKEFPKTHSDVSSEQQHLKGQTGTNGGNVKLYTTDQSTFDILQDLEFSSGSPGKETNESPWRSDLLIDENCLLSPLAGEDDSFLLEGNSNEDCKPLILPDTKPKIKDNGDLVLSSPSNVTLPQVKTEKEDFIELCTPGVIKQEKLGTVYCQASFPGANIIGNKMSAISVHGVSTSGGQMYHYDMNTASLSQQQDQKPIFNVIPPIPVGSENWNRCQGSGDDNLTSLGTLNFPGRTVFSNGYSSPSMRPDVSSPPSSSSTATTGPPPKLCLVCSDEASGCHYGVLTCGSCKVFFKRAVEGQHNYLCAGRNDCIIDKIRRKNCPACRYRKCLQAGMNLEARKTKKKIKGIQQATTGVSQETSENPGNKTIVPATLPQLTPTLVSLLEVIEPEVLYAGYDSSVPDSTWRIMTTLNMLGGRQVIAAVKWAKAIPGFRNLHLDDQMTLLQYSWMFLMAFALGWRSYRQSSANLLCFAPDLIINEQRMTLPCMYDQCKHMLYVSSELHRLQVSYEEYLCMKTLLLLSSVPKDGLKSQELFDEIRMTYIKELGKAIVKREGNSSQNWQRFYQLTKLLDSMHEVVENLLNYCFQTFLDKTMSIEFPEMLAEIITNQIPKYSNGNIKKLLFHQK

human recombinant CYP3A4 = human recombinant CYP3A4 (Homo sapiens, UniProt P08684); experiment: Cytochrome P450 inhibition assay (substrate 7-benzyloxy-4-(trifluoromethyl)coumarin); format: in vitro ADME; conditions: for IC50: Table 2, comparison compounds, read-out: CYP3A4 Inhibition IC50;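 for all read-outs here: compounds preincubated at least 10 min at 37 °C before adding enzyme plus substrate, reaction run 30 min at 37 °C, ketoconazole standard curve on every plate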
[2] = Table 1, competition with TAMRA-labeled dexamethasone, read-out: GR IC50

human recombinant CYP3A4, sequence (P08684 whole entry): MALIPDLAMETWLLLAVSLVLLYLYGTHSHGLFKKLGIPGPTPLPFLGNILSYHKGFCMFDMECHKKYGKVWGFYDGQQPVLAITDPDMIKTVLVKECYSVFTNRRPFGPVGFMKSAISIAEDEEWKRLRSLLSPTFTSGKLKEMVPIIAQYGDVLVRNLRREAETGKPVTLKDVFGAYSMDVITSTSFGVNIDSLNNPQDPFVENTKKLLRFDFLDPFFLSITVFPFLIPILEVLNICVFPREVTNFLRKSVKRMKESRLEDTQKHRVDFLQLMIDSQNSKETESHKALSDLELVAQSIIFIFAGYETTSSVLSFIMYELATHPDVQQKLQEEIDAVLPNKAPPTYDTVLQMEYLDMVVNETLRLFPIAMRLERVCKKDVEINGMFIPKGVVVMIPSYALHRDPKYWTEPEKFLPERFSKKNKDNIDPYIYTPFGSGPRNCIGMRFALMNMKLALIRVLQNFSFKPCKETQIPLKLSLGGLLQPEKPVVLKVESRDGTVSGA

SMILES | IC50 [1, 2] [µM] | also measured
CC(C)(CC(O)(Cc1cc2cc(S(C)(=O)=O)ncc2[nH]1)C(F)(F)F)c1cc(F)ccc1S(C)(=O)=O (stereo not drawn) [1,1,1-Trifluoro-4-(5-fluoro-2-methanesulfonylphenyl)-2-(5-methanesulfonyl-1H-pyrrolo[2,3-c]pyridin-2-ylmethyl)-4-methylpentan-2-ol] | 0.019 | –
CCCS(=O)(=O)c1cc2cc(CC(O)(CC(C)(C)c3cc(F)ccc3S(C)(=O)=O)C(F)(F)F)[nH]c2cn1 (stereo not drawn) [1,1,1-Trifluoro-4-(5-fluoro-2-methanesulfonylphenyl)-4-methyl-2-[5-(propane-1-sulfonyl)-1H-pyrrolo[2,3-c]pyridin-2-ylmethyl]pentan-2-ol] | 0.013 | –
CC(C)S(=O)(=O)c1cc2cc(CC(O)(CC(C)(C)c3cc(F)ccc3S(C)(=O)=O)C(F)(F)F)[nH]c2cn1 (stereo not drawn) [1,1,1-Trifluoro-4-(5-fluoro-2-methanesulfonylphenyl)-4-methyl-2-[5-(propane-2-sulfonyl)-1H-pyrrolo[2,3-c]pyridin-2-ylmethyl]pentan-2-ol] | 0.071 | –
CCS(=O)(=O)c1cc2cc(CC(O)(CC(C)(C)c3ccccc3S(C)(=O)=O)C(F)(F)F)[nH]c2cn1 (stereo not drawn) [2-(5-Ethanesulfonyl-1H-pyrrolo[2,3-c]pyridin-2-ylmethyl)-1,1,1-trifluoro-4-(2-methanesulfonylphenyl)-4-methylpentan-2-ol] | 0.044 | –
CCS(=O)(=O)c1cc2cc(CC(O)(CC(C)(C)c3cccc(F)c3S(C)(=O)=O)C(F)(F)F)[nH]c2cn1 (stereo not drawn) [2-(5-Ethanesulfonyl-1H-pyrrolo[2,3-c]pyridin-2-ylmethyl)-1,1,1-trifluoro-4-(3-fluoro-2-methanesulfonylphenyl)-4-methylpentan-2-ol] | 0.055 | –
CCS(=O)(=O)c1cc2cc(CC(O)(CC(C)(C)c3ccc(C)cc3C(N)=O)C(F)(F)F)[nH]c2cn1 (stereo not drawn) [2-[3-(5-Ethanesulfonyl-1H-pyrrolo[2,3-c]pyridin-2-ylmethyl)-4,4,4-trifluoro-3-hydroxy-1,1-dimethylbutyl]-5-methylbenzamide] | 0.08 | –
CCS(=O)(=O)c1cc2cc(CC(O)(CC(C)(C)c3ccccc3S(N)(=O)=O)C(F)(F)F)[nH]c2cn1 (stereo not drawn) [2-[3-(5-Ethanesulfonyl-1H-pyrrolo[2,3-c]pyridin-2-ylmethyl)-4,4,4-trifluoro-3-hydroxy-1,1-dimethylbutyl]benzenesulfonamide] | 0.14 | –
CC(C)(C[C@@](O)(Cc1cc2nc(S(C)(=O)=O)ccc2[nH]1)C(F)(F)F)c1ccccc1C(N)=O [2-[(R)-4,4,4-Trifluoro-2-hydroxy-3-(5-meethanesulfonyl-1H-pyrrolo[3,2-b]pyridin-2-ylmethyl)-1,1-dimethylbutyl]benzamide] | 0.032 | –
CC(C)(CC(O)(Cc1cc2cc(S(C)(=O)=O)ncc2[nH]1)C(F)(F)F)c1cc(F)ccc1Br (stereo not drawn) [4-(2-Bromo-5-fluorophenyl)-1,1,1-trifluoro-2-(5-methanesulfonyl-1H-pyrrolo[2,3-c]pyridin-2-ylmethyl)-4-methylpentan-2-ol] | 0.006 | –
CC(C)(CC(O)(Cc1cc2cc(S(C)(=O)=O)ncc2[nH]1)C(F)(F)F)c1cc(Cl)ccc1S(C)(=O)=O (stereo not drawn) [4-(5-Chloro-2-methanesulfonylphenyl)-1,1,1-trifluoro-2-(5-methanesulfonyl-1H-pyrrolo[2,3-c]pyridin-2-ylmethyl)-4-methylpentan-2-ol] | – | IC50 [1]: 0.01 µM
CC(C)(CC(O)(Cc1cc2cc(S(C)(=O)=O)ncc2[nH]1)C(F)(F)F)c1cc(F)ccc1O (stereo not drawn) [4-Fluoro-2-[4,4,4-trifluoro-3-hydroxy-3-(5-methanesulfonyl-1H-pyrrolo[2,3-c]pyridin-2-ylmethyl)-1,1-dimethylbutyl]phenol] | 0.025 | –
CCS(=O)(=O)c1cc2cc(CC(O)(CC(C)(C)c3cc(C)ccc3C(N)=O)C(F)(F)F)[nH]c2cn1 (stereo not drawn) [4-Methyl-2-[4,4,4-trifluoro-3-hydroxy-3-(5-ethanesulfonyl-1H-pyrrolo[2,3-c]pyridin-2-ylmethyl)-1,1-dimethylbutyl]benzamide] | 0.038 | –
Cc1ccc(C(N)=O)c(C(C)(C)CC(O)(Cc2cc3cc(S(C)(=O)=O)ncc3[nH]2)C(F)(F)F)c1 (stereo not drawn) [4-Methyl-2-[4,4,4-trifluoro-3-hydroxy-3-(5-methanesulfonyl-1H-pyrrolo[2,3-c]pyridin-2-ylmethyl)-1,1-dimethylbutyl]benzamide] | 0.044 | –
CCS(=O)(=O)c1cc2cc(CC(O)(CC(C)(C)c3ccc(Cl)cc3C(N)=O)C(F)(F)F)[nH]c2cn1 (stereo not drawn) [5-Chloro-2-[3-(5-ethanesulfonyl-1H-pyrrolo[2,3-c]pyridin-2-ylmethyl)-4,4,4-trifluoro-3-hydroxy-1,1-dimethylbutyl]benzamide] | 0.044 | –
Cc1ccc(C(C)(C)CC(O)(Cc2cc3nc(S(C)(=O)=O)ccc3[nH]2)C(F)(F)F)c(C(N)=O)c1 (stereo not drawn) [5-Methyl-2-[4,4,4-trifluoro-3-hydroxy-3-(5-methanesulfonyl-1H-pyrrolo[3,2-b]pyridin-2-ylmethyl)-1,1-dimethylbutyl]benzamide] | 0.058 | –
Cc1ccc(C(C)(C)CC(O)(Cc2cc3cc(S(=O)(=O)C(C)C)ncc3[nH]2)C(F)(F)F)c(C(N)=O)c1 (stereo not drawn) [5-Methyl-2-{4,4,4-trifluoro-3-hydroxy-1,1-dimethyl-3-[5-(propane-2-sulfonyl)-1H-pyrrolo[2,3-c]pyridin-2-ylmethyl]butyl}benzamide] | 0.25 | –
CC(C)(CC(O)(Cc1cc2ccncc2[nH]1)C(F)(F)F)c1ccccc1S(C)(=O)=O (stereo not drawn) [Compound 2, reference compound] | – | IC50 (human recombinant CYP3A4): 0.18 µM
CC(C)(CC(O)(Cc1cc2ccncc2[nH]1)C(F)(F)F)c1ccccc1C(N)=O (stereo not drawn) [Compound 5, reference compound] | – | IC50 (human recombinant CYP3A4): 0.51 µM
CC(C)(CC(O)(Cc1cc2ccncc2[nH]1)C(F)(F)F)c1ccccc1 (stereo not drawn) [Compound 7, reference compound] | – | CYP inhibition (in words) (human recombinant CYP3A4; Table 2): potent CYP inhibitor; IC50 (human recombinant CYP3A4): 0.9 µM
CC(C)(C[C@@](O)(Cc1cc2cc(S(C)(=O)=O)ncc2[nH]1)C(F)(F)F)c1ccc(F)cc1S(C)(=O)=O [drawing 10, (R)-1,1,1-Trifluoro-4-(4-fluoro-2-methanesulfonylphenyl)-2-(5-methanesulfonyl-1H-pyrrolo[2,3-c]pyridin-2-ylmethyl)-4-methylpentan-2-ol] | 0.028 | –
CC(C)(C[C@@](O)(Cc1cc2cc(S(C)(=O)=O)ncc2[nH]1)C(F)(F)F)c1ccc(Cl)cc1S(C)(=O)=O [drawing 13, (R)-4-(4-Chloro-2-methanesulfonylphenyl)-1,1,1-trifluoro-2-(5-methanesulfonyl-1H-pyrrolo[2,3-c]pyridin-2-ylmethyl)-4-methylpentan-2-ol] | – | IC50 [1]: 0.036 µM
CCS(=O)(=O)c1cc2cc(CC(O)(CC(C)(C)c3ccc(Cl)cc3S(C)(=O)=O)C(F)(F)F)[nH]c2cn1 (stereo not drawn) [drawing 15, 4-(4-Chloro-2-methanesulfonylphenyl)-2-(5-ethanesulfonyl-1H-pyrrolo[2,3-c]pyridin-2-ylmethyl)-1,1,1-trifluoro-4-methylpentan-2-ol] | 0.039 | –
CCS(=O)(=O)c1cc2cc(CC(O)(CC(C)(C)c3ccc(F)cc3S(C)(=O)=O)C(F)(F)F)[nH]c2cn1 (stereo not drawn) [drawing 16, 2-(5-Ethanesulfonyl-1H-pyrrolo[2,3-c]pyridin-2-ylmethyl)-1,1,1-trifluoro-4-(4-fluoro-2-methanesulfonylphenyl)-4-methylpentan-2-ol] | 0.029 | –
